Reference: patent US20230219934A1, “2,3-DISUBSTITUTED PYRIDO[3,4-B]PYRAZINE-CONTAINING COMPOUNDS AS KINASE INHIBITORS” (Purdue Research Foundation, priority 2020, published 2023)

Experiments:
[1] = tested on: some lung and colon cancers; assay: NCI-60 potency comparison on lung and colon cancers; format: cell-based; settings: more potently than HSL212
Protocol: (§1) According to the National Cancer Institute, Bethesda, Md. (the protocol of the Drug Evaluation Branch), the effects of compounds are measured as follows: Cell suspensions are diluted to a target cell density of 5000-40,000 cells per well (based on cell growth characteristics) in a 96-well microtiter plates. The test compounds were evaluated at five concentrations (10-fold dilutions) with the highest concentration being 100 μM. The incubation period was 48 h under 5% carbon dioxide atmosphere and 100% humidity. A sulforhodamine B assay was used to assay the cells. Optical densities of the wells were read by a plate reader the optical densities were processed into GI50 (the concentration that causes 50% growth inhibition).
(§2) The NCI renamed the IC50 value, the concentration of compound that causes 50% growth inhibition, as follows.
(§3) GI50=100×(T−T0)/(C−T0)=50, where T=the optical density of the test well after a 48-h period of exposure to test drug, T0=the optical density at time zero, C=the control optical density. The control is the well not treated with test agent (https://dtp.cancer.gov/databases_tools/docs/compare/compare_methodology.htm).

[2] = tested on: K562 cell line (leukemia); assay: NCI-60 GI50 determination, K562; format: cell-based; settings: Homo sapiens, NCI Developmental Therapeutics Program in-vitro testing, 48 h
Protocol: as §1, §2, §3

[3] = tested on: KM12 (colon and driven by TrkA kinase); assay: NCI-60 GI50 determination, KM12; format: cell-based; settings: Homo sapiens, NCI Developmental Therapeutics Program in-vitro testing, 48 h
Protocol: as §1, §2, §3

EKVX (NSCLC) = assay: NCI-60 GI50 determination, EKVX; format: cell-based; settings: Homo sapiens, NCI Developmental Therapeutics Program in-vitro testing, 48 h
Protocol: as §1, §2, §3

[4] = tested on: cell lines harboring RET solvent front mutations; assay: Inhibition of selpercatinib and pralsetinib-resistant cell lines; format: cell-based
Oral bioavailability = settings: in vivo
[5] = tested on: tumor harboring solvent front RET810 mutation; assay: Growth of tumor harboring solvent front RET810 mutation; format: in vivo, mice; settings: HSL476 at 25 mg/Kg (daily)
Tolerability in mice = format: in vivo
MiaPaCa-2 = assay: MIA PaCa-2 pancreatic cancer cell growth inhibition (CellTitre Blue viability); format: cell-based; settings: Homo sapiens, pancreatic cancer cell line, 72 hours
Protocol: Cell Culture: MIA PaCa-2 cells were cultured in RPMI media supplemented with 10% fetal bovine serum, 1% GlutaMax Supplement (GIBCO™), 1% Penicillin-Streptomycin (GIBCO™). Cells were seeded in a 96-well plate at 1.1×10^4 cells/mL. Cells were incubated at […] for 24 hours after which plates were treated in triplicates with 10 uL of compound (0.6 μM in DMSO) that was further diluted in the same media (5 μL of compound into 145 μL of media). For IC50 compounds were tested at 9 different concentrations, initial concentration of 0.6 μM in DMSO and subsequently diluted by a third for the other 8 concentrations. This was incubated at […] for 72 hours after which 10 uL of The CellTitre Blue Cell Viability Assay (Promega, Madison Wis.) was added to each well and incubated at […] for 3 hours. Plates were read on a CYTATION™ 5 Cell Imaging Multi-Mode Reader (BioTek). Appropriate controls were used. Graphed using GraphPadPrism 5.0 Software.

[6] = tested on: cell line harboring RET G810R; assay: Inhibition of cell line harboring RET G810R; format: cell-based; settings: under similar conditions

Row | Compound | GI50 [2] [nM] | GI50 [3] [nM] | GI50 (EKVX (NSCLC)) [nM] | Effect on growth of tumor harboring solvent front RET810 mutation [5] | IC50 [6] [nM] | also measured
1 | Cc1nc2cncc(C#Cc3cncc(C(=O)Nc4ccc(CN5CCN(C)CC5)c(C(F)(F)F)c4)c3)c2nc1C [HSL211, 5-((2,3-dimethylpyrido[3,4-b]pyrazin-8-yl)ethynyl)-N-(4-((4-methylpiperazin-1-yl)methyl)-3-(trifluoromethyl)phenyl)nicotinamide] | < 5 | < 5 | 484 |  |  | Potency relative to HSL212 on some lung and colon cancers [1]: ~100 ×
2 | CN1CCN(Cc2ccc(NC(=O)c3cncc(C#Cc4cncc5nccnc45)c3)cc2C(F)(F)F)CC1 [HSL212, N-(4-((4-methylpiperazin-1-yl)methyl)-3-(trifluoromethyl)phenyl) (pyrido[3,4-b]pyrazin-8-ylethynyl)nicotinamide] | < 5 | 136 | > 50000 |  |  | 
3 | Cc1nc2cnc(N)c(C#Cc3cncc(C(=O)Nc4ccc(CN5CCN(C)CC5)c(C(F)(F)F)c4)c3)c2nc1C [HSL476, 5-((7-amino-2,3-dimethylpyrido[3,4-b]pyrazin-8-yl)ethynyl)-N-(4-((4-methylpiperazin-1-yl)methyl)-3-(trifluoromethyl)phenyl)nicotinamide] |  |  |  | could reduce growth tumor | 18 | IC50 [4]: < 20 nM; Oral bioavailability (Oral bioavailability): orally bioavailable; Tolerability (Tolerability in mice): well tolerated; IC50 (MiaPaCa-2): 25 nM
4 | COc1ccc(CN2C3CC2CN(c2ccc(-c4cc(OCC(C)(C)O)cn5ncc(C#N)c45)cn2)C3)cn1 [Selpercatinib, reference compound] |  |  |  | ineffective | 2620 | 
5 | Cc1ccc(C(=O)Nc2ccc(CN3CCN(C)CC3)c(C(F)(F)F)c2)cc1C#Cc1cnc2cccnn12 [ponatinib] |  |  |  |  | 77 | 
6 | CO[C@]1(C(=O)N[C@@H](C)c2ccc(-n3cc(F)cn3)nc2)CC[C@H](c2nc(C)cc(Nc3cc(C)[nH]n3)n2)CC1 [pralsetinib] |  |  |  |  | 7320 | 
